In the Deep4Chem optical property database:
Values joined by “and” are separate entries in the source; they are usually repeats but may differ in a detail not shown here. Equal values may be shown once.

Assay: photoluminescence quantum yield (fraction); solvent given as SMILES
[1] = in c1ccc2c(c1)c1ccccc1n2-c1ccc(-c2ccc(-n3c4ccccc4c4ccccc43)cc2)cc1

Structure (SMILES): c1ccc2c(c1)Oc1ccccc1N2c1ccc2c(c1)c1ccccc1n1ccnc21
- photoluminescence quantum yield (in O=P(c1ccccc1)(c1ccccc1)c1ccccc1Oc1ccccc1P(=O)(c1ccccc1)c1ccccc1): 0.27

Structure (SMILES): FC(F)(F)c1cc2n(n1)[B-]1(c3ccccc3Oc3ccccc31)[n+]1ccc3ccccc3c1-2
- photoluminescence quantum yield (in C1CCCCC1): 0.0026
- photoluminescence quantum yield (in Cc1ccccc1): 0.0027
- photoluminescence quantum yield (in ClCCl): 0.0029

Structure (SMILES): COc1nc(Nc2ccc3cc4ccccc4cc3c2)nc(OC)n1
- photoluminescence quantum yield (in C1COCCO1): 0.45
- photoluminescence quantum yield (in CC#N): 0.37
- photoluminescence quantum yield (in CCCCOCCCC): 0.39
- photoluminescence quantum yield (in CCOC(C)=O): 0.26

Structure (SMILES): COc1cccc2c1oc(=O)c1c(=O)oc3cc(O)ccc3c12
- photoluminescence quantum yield (in ClCCl): 0.004

Structure (SMILES): N#Cc1ccc(/C=C2\N=C(c3ccccc3)OC2=O)cc1
- photoluminescence quantum yield (in C1COCCO1): 0.028

Structure (SMILES): Cc1ccc(-c2ccccc2)cc1
- photoluminescence quantum yield (in C1CCCCC1): 0.23

Structure (SMILES): COC(=O)C(Cc1ccc2oc(-c3ccncc3)nc2c1)NC(=O)OC(C)(C)C (configuration not stated)
- photoluminescence quantum yield (in CC1CCCCC1): 0.01
- photoluminescence quantum yield (in CC#N): 0.21
- photoluminescence quantum yield (in CO): 0.4

Structure (SMILES): C(=C\c1cc[n+](Cc2ccccc2)cc1)/c1cc[n+](Cc2ccccc2)cc1
- photoluminescence quantum yield (in CC#N): 0.0006

Structure (SMILES): Cc1cc(C)c(C2=[N+]3C(=Cc4c(C)cc(C)n4[B-]3(F)F)c3ccccc32)[nH]1
- photoluminescence quantum yield (in C1CCOC1): 0.06
- photoluminescence quantum yield (in CC#N): 0.02
- photoluminescence quantum yield (in CCCCCC): 0.85
- photoluminescence quantum yield (in CO): 0.03
- photoluminescence quantum yield (in Cc1ccccc1): 0.81
- photoluminescence quantum yield (in ClCCl): 0.61

Structure (SMILES): C(#Cc1nc2ccccc2s1)c1ccc(N(c2ccccc2)c2ccccc2)cc1
- photoluminescence quantum yield (in Cc1ccccc1): 0.62

Structure (SMILES): CCN(CC)c1ccc(-c2nc3c(c4c2-c2ccc(C#N)cc2CC4)-c2ccc(C#N)cc2CC3)cc1
- photoluminescence quantum yield (in C1CCOC1): 0.74
- photoluminescence quantum yield (in CC#N): 0.339
- photoluminescence quantum yield (in CCCCCC): 0.209
- photoluminescence quantum yield (in CCOC(C)=O): 0.565
- photoluminescence quantum yield (in CO): 0.148
- photoluminescence quantum yield (in CS(C)=O): 0.47
- photoluminescence quantum yield (in Cc1ccccc1): 0.427
- photoluminescence quantum yield (in ClCCl): 0.842

Structure (SMILES): N#Cc1c(-n2c3ccccc3c3ccccc32)c(-n2c3ccccc3c3ccccc32)c(-n2c3ccccc3c3ccccc32)c(-n2c3ccccc3c3ccccc32)c1-n1c2ccccc2c2ccccc21
- photoluminescence quantum yield (in Cc1ccccc1): 0.75 and 0.7
- photoluminescence quantum yield (in c1cc(-c2cccc(-n3c4ccccc4c4ccccc43)c2)cc(-n2c3ccccc3c3ccccc32)c1): 0.65

Structure (SMILES): O=C1/C(=C2\Nc3cc4ccc5cccc6ccc(c3C2=O)c4c56)Nc2cc3ccc4cccc5ccc(c21)c3c45
- photoluminescence quantum yield (in C1CCOC1): 0.0076

Structure (SMILES): c1cc2c3c(c1)OCCCCCCOc1cccc(c1-c1c4ccccc4c-3c3ccccc13)OCCCCCCO2
- photoluminescence quantum yield (in C1CCCCC1): 0.93

Structure (SMILES): CCOC(=O)c1cc(C)n2nc(-c3ccccc3)ccc12
- photoluminescence quantum yield (in CCCCCC): 0.434

Structure (SMILES): O=C1C2=C(O[B-](F)(F)[n+]3c2ccc2ccccc23)c2cccc3c(N4CCOCC4)ccc1c23
- photoluminescence quantum yield (in C1CCOC1): 0.53
- photoluminescence quantum yield (in CC#N): 0.47
- photoluminescence quantum yield (in CCO): 0.45
- photoluminescence quantum yield (in CO): 0.44
- photoluminescence quantum yield (in ClCCl): 0.5

Structure (SMILES): CCCCCCN1C(=O)C(c2ccc(-n3c4ccccc4c4ccccc43)cc2)=C(c2ccc(-n3c4ccccc4c4ccccc43)cc2)C1=O
- photoluminescence quantum yield (in ClC(Cl)Cl): 0.42
- photoluminescence quantum yield [1]: 0.66

Structure (SMILES): CCOC(=O)c1sc2nc(-c3ccc(OC)cc3)c(C)c(C#N)c2c1N
- photoluminescence quantum yield (in c1ccccc1): 0.064

Structure (SMILES): c1ccc(-c2ccc3c(c2)c2cc(-c4ccccc4)ccc2n3-c2ccc3c(c2)c2cc(-n4c5ccc(-c6ccccc6)cc5c5cc(-c6ccccc6)ccc54)ccc2n3-c2ccc(-c3nc(-c4ccccc4)nc(-c4ccccc4)n3)cc2)cc1
- photoluminescence quantum yield (in Cc1ccccc1): 0.74

Structure (SMILES): N#Cc1cc(N2c3ccccc3Oc3ccccc32)c(N2c3ccccc3Oc3ccccc32)cc1C#N
- photoluminescence quantum yield [1]: 0.064

Structure (SMILES): Cc1ccc(-c2cc(/C=C/c3ccc(N(c4ccccc4)c4ccccc4)cc3)c(C#N)c(N3CCCCC3)c2)cc1
- photoluminescence quantum yield (in CS(C)=O): 0.58

Structure (SMILES): O=S1(=O)c2ccccc2C2(c3cc(-c4ccc(N(c5ccccc5)c5ccccc5)cc4)ccc3-c3ccc(-c4ccc(N(c5ccccc5)c5ccccc5)cc4)cc32)c2ccccc21
- photoluminescence quantum yield (in ClCCl): 0.83
- photoluminescence quantum yield (in c1cc(-n2c3ccccc3c3ccccc32)cc(-n2c3ccccc3c3ccccc32)c1): 0.9

Structure (SMILES): CCN(CC)c1ccc(/C=N/C2CCCCC2/N=C/c2ccc(N(CC)CC)cc2O)c(O)c1 (configuration not stated)
- photoluminescence quantum yield (in CC#N): 0.068

Structure (SMILES): Cc1ccc(/C=C/c2ccccc2-[n+]2noc([O-])c2-c2ccccc2)cc1
- photoluminescence quantum yield (in C1CCCCC1): 0.0018
- photoluminescence quantum yield (in CC#N): 0.0048

Structure (SMILES): Clc1cc(Cl)c([C](c2c(Cl)cc(Cl)cc2Cl)c2c(Cl)cc(-n3c4ccccc4c4ccccc43)cc2Cl)c(Cl)c1
- photoluminescence quantum yield (in C1CCCCC1): 0.64
- photoluminescence quantum yield (in ClC(Cl)Cl): 0.06

Structure (SMILES): COc1ccc(C2=C(Br)C(c3ccccc3)=[N+]3C2=Nc2c(-c4ccc(OC)cc4)c(Br)c(-c4ccccc4)n2[B-]3(F)F)cc1
- photoluminescence quantum yield (in Cc1ccccc1): 0.01

Structure (SMILES): CCOC(=O)c1ccc2c(c1)n(C)c1c3ccc(C(=O)OCC)cc3n(C)c21
- photoluminescence quantum yield (in CCCO): 0.53

Structure (SMILES): Cc1cccc2ccccc12
- photoluminescence quantum yield (in C1CCCCC1): 0.4

Structure (SMILES): F[B-]1(F)n2c(c3cccc4cccc2c43)=Nc2sc3ccccc3[n+]21
- photoluminescence quantum yield (in C1CCOC1): 0.89
- photoluminescence quantum yield (in CC#N): 0.97
- photoluminescence quantum yield (in CCCCCC): 0.87
- photoluminescence quantum yield (in Cc1ccccc1): 0.76
- photoluminescence quantum yield (in ClCCl): 0.85

Structure (SMILES): F[B-]1(F)n2cccc2C(c2ccccc2)=C2C=CC(c3ccc(OC4=[N+]5C(=C(c6ccccc6)c6cc(Br)c(Br)n6[B-]5(F)F)C=C4Br)cc3)=[N+]21
- photoluminescence quantum yield (in ClC(Cl)Cl): 0.01
